According to US20250282735A1, “BICYCLE COMPOUNDS AS TEAD INHIBITOR” (DONG-A ST CO., LTD., priority 2022, published 2025):

Key:
Format in all cases: cell-based
[1] = system: MSTO-211H cells; assay: Proliferation assay (EdU incorporation), MSTO-211H; settings: Homo sapiens, 72 h, YAP-driven MSTO-211H (LATS1 mutation), 3 days with inhibitor, 1% serum
Description: (§1) The anti-proliferative activity of TEAD inhibitors was evaluated in cells with different properties for YAP; “YAP-driven” cells (MSTO-211H, NCI-H226) in which YAP located in the nucleus and “YAP-independent” cells (OCM1, NCI-H28) where YAP located in the cytoplasm. […] TEAD inhibitors were evaluated with cell lines with these YAP profiling and mutational status.
(§2) The next day, replace it with cell starvation medium containing 1% serum. After one day of growth in the starvation medium, the cells were incubated for 3 days with TEAD inhibitors in a concentration range of 0.01-10 μM. After 3 days, EdU (Invitrogen) at a concentration of 10 µM was added to the starvation medium and incubated for an additional 24 hours. After removing the starvation medium remaining in each well, wash the wells with PBS. Cells were fixed with 4% paraformaldehyde (Electron microscopy sciences) at room temperature for 20 minutes. After removing the fix solution remaining in each well, wash the wells with PBS and the cells were permeabilized for 40 minutes by adding 0.5% triton X-100 (Sigma Aldrich). After removing the permeabilization solution remaining in each well, the EdU labeling was performed according to the instructions of the manufacturer's instructions (Click-iT™ Cell Reaction Buffer Kit, Invitrogen). After the Click reaction for EdU labeling, nuclei were stained with […] (Thermo Scientific) for total cell count analysis. After plate preparation for detection, Image acquisition was performed using the ImageXpress Micro XLS. The acquired images were analyzed using MetaXpress software (molecular devices). Through this experimental method, it was possible to confirm the inhibitory activity of TEAD inhibitors by detection EdU incorporated into proliferating cells.
(§3) IC50 for cell proliferation inhibition activity are shown in the Table 2 below and designated within the following ranges. [+++: ≤0.1 μM, ++: >0.1 μM to ≤1 μM, +: >1 μM to ≤10μ, −: >10 μM]

[2] = system: NCI-H226 cells; assay: Proliferation assay (EdU incorporation), NCI-H226; settings: Homo sapiens, 72 h, YAP-driven NCI-H226 (NF2 mutation), 3 days with inhibitor, 1% serum
Description: as §1, §2, §3

[3] = system: TEAD reporter-containing human breast cancer cell line MCF7; assay: TEAD reporter (luciferase) assay; settings: TEAD reporter MCF7 cells, 24 hours treatment, 1% serum media
Outline: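 Cells plated at 30,000/well overnight, then treated 24 h in 1% serum medium with 0.1% DMSO. CCK-8 viability read at 450 nm, then Dual-Glo luciferase luminescence; IC50 from non-linear regression of dose-response curves.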

SMILES | IC50 [2] | IC50 [3] | IC50 [1]
C=CC(=O)Nc1cnc2c(c1)c(/C=C/c1ccc(Cl)cc1)cn2C [Compound 16, (E)-N-(3-(4-Chlorostyryl)-1-methyl-1H-pyrrolo[2,3-b]pyridin-5-yl)acrylamide] | ≤ 100 nM | 100 to 1000 nM | ≤ 100 nM
C=CC(=O)Nc1cnc2c(c1)c(/C=C/c1ccc(Cl)cc1)cn2CC [Compound 18, (E)-N-(3-(4-Chlorostyryl)-1-ethyl-1H-pyrrolo[2,3-b]pyridin-5-yl)acrylamide] | ≤ 100 nM | 1000 to 10000 nM | ≤ 100 nM
C=CC(=O)Nc1cnc2c(c1)c(/C=C/C1CCC(F)(F)CC1)cn2C(C)C [Compound 19, (E)-N-(3-(2-(4,4-Difluorocyclohexyl)vinyl)-1-isopropyl-1H-pyrrolo[2,3-b]pyridin-5-yl)acrylamide] | ≤ 100 nM | ≤ 100 nM | 100 to 1000 nM
C=CC(=O)Nc1ccc2c(c1)c(/C=C/C1CCC(F)(F)CC1)cn2C [Compound 21, (E)-N-(3-(2-(4,4-Difluorocyclohexyl)vinyl)-1-methyl-1H-indol-5-yl)acrylamide] | 100 to 1000 nM | ≤ 100 nM | 100 to 1000 nM
C=CC(=O)Nc1ccc2c(c1)c(/C=C/c1ccc(Cl)cc1)cn2C [Compound 22, (E)-N-(3-(4-Chlorostyryl)-1-methyl-1H-indol-5-yl)acrylamide] | 100 to 1000 nM | 100 to 1000 nM | 100 to 1000 nM
C=CC(=O)Nc1ccc2c(c1)c(/C=C/c1ccc(F)cc1)cn2C [Compound 24, (E)-N-(3-(4-Fluorostyryl)-1-methyl-1H-indol-5-yl)acrylamide] | ≤ 100 nM | 100 to 1000 nM | 100 to 1000 nM
C=CC(=O)Nc1ccc2c(c1)c(/C=C/C1CCC(F)(F)CC1)cn2CC [Compound 25, (E)-N-(3-(2-(4,4-Difluorocyclohexyl)vinyl)-1-ethyl-1H-indol-5-yl)acrylamide] | 100 to 1000 nM | ≤ 100 nM | ≤ 100 nM
C=CC(=O)Nc1ccc2c(c1)c(/C=C/c1ccc(Cl)cc1)cn2C(C)C [Compound 28, (E)-N-(3-(4-Chlorostyryl)-1-isopropyl-1H-indol-5-yl)acrylamide] | ≤ 100 nM | 100 to 1000 nM | 100 to 1000 nM

Further lines, with some results ahead:

IC50 [2] | IC50 [3] | SMILES | IC50 [1]
≤ 100 nM | ≤ 100 nM | C=CC(=O)Nc1cnc2c(c1)c(/C=C/C1CCC(F)(F)CC1)nn2C [Compound 30, (E)-N-(3-(2-(4,4-Difluorocyclohexyl)vinyl)-1-methyl-1H-pyrazolo[3,4-b]pyridin-5-yl)acrylamide] | 100 to 1000 nM
≤ 100 nM | 100 to 1000 nM | C=CC(=O)Nc1cnc2c(c1)c(/C=C/c1ccc(Cl)cc1)nn2C [Compound 31, (E)-N-(3-(4-Chlorostyryl)-1-methyl-1H-pyrazolo[3,4-b]pyridin-5-yl)acrylamide] | ≤ 100 nM
≤ 100 nM | ≤ 100 nM | C=CC(=O)Nc1cnc2c(c1)c(CCc1ccc(F)cc1)cn2C [Example 63, N-(3-(4-Fluorophenethyl)-1-methyl-1H-pyrrolo[2,3-b]pyridin-5-yl)acrylamide] | ≤ 100 nM
≤ 100 nM | 100 to 1000 nM | C=CC(=O)Nc1cnc2c(c1)c(-c1ccc(Cl)c(F)c1)cn2C [Example 87, N-(3-(4-Chloro-3-fluorophenyl)-1-methyl-1H-pyrrolo[2,3-b]pyridin-5-yl)acrylamide] | ≤ 100 nM
≤ 100 nM | 100 to 1000 nM | C=CC(=O)Nc1cnc2c(c1)c(-c1ccc(CC)cc1)cn2C [Example 89, N-(3-(4-Ethylphenyl)-1-methyl-1H-pyrrolo[2,3-b]pyridin-5-yl)acrylamide] | ≤ 100 nM
≤ 100 nM | ≤ 100 nM | C=CC(=O)Nc1cnc2c(c1)c(-c1ccc(F)c(C(F)(F)F)c1)cn2C [Example 92, N-(3-(4-Fluoro-3-(trifluoromethyl)phenyl)-1-methyl-1H-pyrrolo[2,3-b]pyridin-5-yl)acrylamide] | ≤ 100 nM
≤ 100 nM | 100 to 1000 nM | C=CC(=O)Nc1cnc2c(c1)c(-c1ccc(C(C)C)cc1)cn2C [Example 93, N-(3-(4-Isopropylphenyl)-1-methyl-1H-pyrrolo[2,3-b]pyridin-5-yl)acrylamide] | ≤ 100 nM
≤ 100 nM | 100 to 1000 nM | C=CC(=O)Nc1cnc2c(c1)c(-c1ccc(F)c(Cl)c1)cn2C [Example 97, N-(3-(3-Chloro-4-fluorophenyl)-1-methyl-1H-pyrrolo[2,3-b]pyridin-5-yl)acrylamide] | ≤ 100 nM
≤ 100 nM | 1000 to 10000 nM | C=CC(=O)Nc1cnc2c(c1)c(-c1ccc(Cl)cc1)cn2C [Example 98, N-(3-(4-Chlorophenyl)-1-methyl-1H-pyrrolo[2,3-b]pyridin-5-yl)acrylamide] | ≤ 100 nM
